Experiments:
[1] = system: PGD2; settings: dosed intranasally, phase I/II study, allergic rhinitis; cited from earlier work
[2] = target: rhSYK (Homo sapiens, UniProt P43405); assay: biochemical

SMILES	decrease in PGD2 [1]	IC50 [2]
Oc1cccc(Nc2ncc(F)c(Nc3cccc(O)c3)n2)c1 [Example R112]	statistically significant decrease	–
Cc1cc(Nc2nccc(C(F)(F)F)n2)cc(-c2cnc([C@]3(O)CC[C@@H](C(=O)NCCCN4CCCC4=O)CC3)s2)c1 [Example 119-88]	–	< 0.1 µM
Cc1cc(Nc2nccc(C(F)(F)F)n2)cc(-c2cnc([C@]3(O)CC[C@@H](C(=O)NCCCc4ccccc4)CC3)s2)c1 [Example 119-83]	–	< 0.1 µM
COCCNC(=O)[C@H]1CC[C@](O)(c2ncc(-c3cc(C)cc(Nc4nccc(C(F)(F)F)n4)c3)s2)CC1 [Example 119-25]	–	< 0.1 µM
Cc1cc(Nc2nccc(C(F)(F)F)n2)cc(-c2cnc([C@]3(O)CC[C@@H](C(=O)N(CCO)CCO)CC3)s2)c1 [Example 119-50]	–	< 0.1 µM
Cc1cc(Nc2nccc(C(F)(F)F)n2)cc(-c2cnc(C3(O)CCC(CC(N)=O)CC3)s2)c1 (centres unmarked) [Example 117-8]	–	< 0.1 µM
Cc1cc(Nc2nccc(OCCO)n2)cc(-c2cnc(CCC(N)=O)s2)c1 [Example 117-14]	–	< 0.1 µM
Cc1cc(Nc2nccc(C(F)(F)F)n2)cc(-c2cnc([C@]3(O)CC[C@@H](C(=O)N4CCC(Cc5ccccc5)CC4)CC3)s2)c1 [Example 119-102]	–	0.1 to 1 µM
Cc1cc(Nc2nccc(C(F)(F)F)n2)cc(-c2cnc([C@]3(O)CC[C@@H](C(=O)N4CCc5cc(O)c(O)cc5C4)CC3)s2)c1 [Example 119-138]	–	< 0.1 µM
Cc1cc(Nc2nccc(C(F)(F)F)n2)cc(-c2cnc(C3(O)CCC(C(=O)N4CCC(C#N)C4)CC3)s2)c1 (centres unmarked) [Example 119-37]	–	< 0.1 µM
Cc1cc(Nc2nccc(C(F)(F)F)n2)cc(-c2cnc(C3(O)CCC(C(=O)N4CCC(C#N)CC4)CC3)s2)c1 (centres unmarked) [Example 119-59]	–	< 0.1 µM
Cc1cc(Nc2nccc(C(F)(F)F)n2)cc(-c2cnc([C@]3(O)CC[C@@H](C(=O)N4CCC4)CC3)s2)c1 [Example 119-19]	–	< 0.1 µM
Cc1cc(Nc2nccc(C(C)C)n2)cc(-c2cnc(C3(O)CCC(C(N)=O)C(C)(C)C3)s2)c1 (centres unmarked) [Example 119-119]	–	< 0.1 µM
Cc1cc(Nc2nccc(C(F)(F)F)n2)cc(-c2cnc(C3(O)CCC(C(=O)NCc4ccc(CC5COC(=O)N5)cc4)CC3)s2)c1 (centres unmarked) [Example 119-106]	–	< 0.1 µM
Cc1cc(Nc2nccc(C(F)(F)F)n2)cc(-c2cnc(C3(O)CCC(C(=O)NCCOc4ccccc4)CC3)s2)c1 (centres unmarked) [Example 119-84]	–	< 0.1 µM
Cc1cc(Nc2nccc(C(F)(F)F)n2)cc(-c2cnc([C@]3(O)CC[C@@H](C(=O)NCc4cccc(O)c4)CC3)s2)c1 [Example 119-71]	–	< 0.1 µM
Cc1cc(Nc2nccc(C(C)C)n2)cc(-c2cnc(C3(O)CCC(C(N)=O)C(C)C3)s2)c1 (centres unmarked) [Example 119-10]	–	< 0.1 µM
Cc1cc(Nc2nccc(C(F)(F)F)n2)cc(-c2cnc([C@]3(O)CC[C@@H](C(=O)NCC(=O)O)CC3)s2)c1 [Example 119-26]	–	< 0.1 µM
CCN(CCC#N)C(=O)C1CCC(O)(c2ncc(-c3cc(C)cc(Nc4nccc(C(F)(F)F)n4)c3)s2)CC1 (centres unmarked) [Example 119-40]	–	< 0.1 µM
CCN(C)C(=O)[C@H]1CC[C@](O)(c2ncc(-c3cc(C)cc(Nc4nccc(C(F)(F)F)n4)c3)s2)CC1 [Example 119-21]	–	< 0.1 µM
Cc1cc(Nc2nccc(C(F)(F)F)n2)cc(-c2cnc([C@]3(O)CC[C@@H](C(=O)Nc4ccc(O)cc4O)CC3)s2)c1 [Example 119-76]	–	< 0.1 µM
Cc1cc(Nc2nccc(C(F)(F)F)n2)cc(-c2cnc(C3(O)CCN(c4ncccc4C(N)=O)CC3)s2)c1 [Example 117-6]	–	< 0.1 µM
Cc1cc(Nc2nccc(C(F)(F)F)n2)cc(-c2cnc([C@@]3(O)CC[C@H](C(N)=O)C(C)(C)C3)s2)c1Br [Example 117-22]	–	< 0.1 µM
Cc1cc(Nc2nccc(C(F)(F)F)n2)cc(-c2cnc(C3(O)CCC(C(=O)NCc4cc[nH]n4)CC3)s2)c1 (centres unmarked) [Example 119-39]	–	< 0.1 µM
COCc1cc(Nc2nccc(C(F)(F)F)n2)cc(-c2cnc(C3(O)CCC(C(N)=O)C(C)C3)s2)c1 (centres unmarked) [Example 119-142]	–	< 0.1 µM
Cc1cc(Nc2nccc(C(F)(F)F)n2)cc(-c2cnc([C@]3(O)CC[C@@H](C(=O)NCc4ccccn4)CC3)s2)c1 [Example 119-54]	–	< 0.1 µM

From patent publication US8551984B2, “Aminopyrimidines as SYK inhibitors” (Merck Sharp & Dohme Corp., priority 2009, dated 2013)
